Assays:
[1] = biological target: T1, Stimulator of interferon genes protein (Homo sapiens, UniProt Q86WV6); experiment: Agonist activity at STING G230A/R293Q mutant (unknown origin) expressed in digitonin -permeabilized HEK293T cells preincubated for 30 mins followed by washout and measured after 5 hrs by Bright-glo luciferase assay
[2] = biological target: T1, Stimulator of interferon genes protein; experiment: Agonist activity at STING R71H/G230A/R293Q mutant (unknown origin) expressed in digitonin -permeabilized HEK293T cells preincubated for 30 mins followed by washout and measured after 5 hrs by Bright-glo luciferase assay

T1 sequence (Q86WV6 whole entry): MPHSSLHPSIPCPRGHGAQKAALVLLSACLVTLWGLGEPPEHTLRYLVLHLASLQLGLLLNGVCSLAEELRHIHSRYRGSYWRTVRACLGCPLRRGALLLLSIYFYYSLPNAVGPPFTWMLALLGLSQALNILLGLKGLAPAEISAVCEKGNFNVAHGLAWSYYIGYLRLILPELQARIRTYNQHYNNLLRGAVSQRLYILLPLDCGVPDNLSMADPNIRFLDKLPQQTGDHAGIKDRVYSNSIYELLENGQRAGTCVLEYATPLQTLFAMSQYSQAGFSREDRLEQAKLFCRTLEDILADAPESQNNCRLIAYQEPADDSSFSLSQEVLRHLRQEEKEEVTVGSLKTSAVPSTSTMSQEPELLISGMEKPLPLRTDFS

EC50 [1]: 100 nM | EC50 [2]: 100 nM
SMILES: Nc1ncnc2c1ncn2[C@@H]1O[C@@H]2C=CP(=O)(O)O[C@H]3[C@@H](F)[C@H](n4cnc5c(N)ncnc54)O[C@@H]3COP(=O)(O)O[C@H]2[C@H]1F
